From publication PMC3867380, “Fluorescence Imaging-Based High-Throughput Screening of Fast- and Slow-Cycling LOV Proteins” (PLoS ONE, 2013)

Key:
[1] = target: T1, AsLOV2 (second LOV domain of Avena sativa phototropin 1) (Avena sativa, UniProt O49003, V416C/T418P/N425P/I466V/F494K); test: flavin fluorescence recovery imaging in E. coli colonies after blue light; type: cell-based; details: colonies on agar, 50 °C and 25 °C; endogenous flavin; blue-light-induced reversible covalent adduct
T1 construct: gene NPH1-1; LOV2 domain with J-alpha helix, residues 404-560; N-terminal 6xHis tag; synthetic cDNA with mammalian codons in pCold I; E. coli DH5alpha; TALON purified

[2] = target: T2, AsLOV2 (second LOV domain of Avena sativa phototropin 1) (Avena sativa, UniProt O49003, N425Q/I427V); test: as above; type: cell-based; details: colonies on agar, on ice and 25 °C; endogenous flavin; blue-light-induced reversible covalent adduct
T2 construct: gene NPH1-1; LOV2 domain with J-alpha helix, residues 404-560; N-terminal 6xHis tag; synthetic cDNA with mammalian codons in pCold I; E. coli DH5alpha; TALON purified

[3] = target: T3, AsLOV2 (second LOV domain of Avena sativa phototropin 1) (Avena sativa, UniProt O49003, N425S/I427L/I466M); test: as above; type: cell-based; details: colonies on agar, on ice and 25 °C; endogenous flavin; blue-light-induced reversible covalent adduct
T3 construct: gene NPH1-1; LOV2 domain with J-alpha helix, residues 404-560; N-terminal 6xHis tag; synthetic cDNA with mammalian codons in pCold I; E. coli DH5alpha; TALON purified

[4] = target: T4, AsLOV2 (second LOV domain of Avena sativa phototropin 1) (Avena sativa, UniProt O49003, V416T/T418S); test: as above; type: cell-based; details: colonies on agar, on ice and 25 °C; endogenous flavin; blue-light-induced reversible covalent adduct
T4 construct: gene NPH1-1; LOV2 domain with J-alpha helix, residues 404-560; N-terminal 6xHis tag; synthetic cDNA with mammalian codons in pCold I; E. coli DH5alpha; TALON purified

[5] = target: T5, AsLOV2 (second LOV domain of Avena sativa phototropin 1) (Avena sativa, UniProt O49003); test: absorption and fluorescence spectra of co-purified flavin; photoadduct formation and dark recovery at […] nm; type: binding; details: room temperature; pH 7.5; flavin co-purified from E. coli; blue-light-induced reversible covalent adduct with Cys450
T5 construct: gene NPH1-1; LOV2 domain with J-alpha helix, residues 404-560; N-terminal 6xHis tag; synthetic cDNA with mammalian codons in pCold I; E. coli DH5alpha; TALON purified
T5 sequence (O49003 entry or part of it): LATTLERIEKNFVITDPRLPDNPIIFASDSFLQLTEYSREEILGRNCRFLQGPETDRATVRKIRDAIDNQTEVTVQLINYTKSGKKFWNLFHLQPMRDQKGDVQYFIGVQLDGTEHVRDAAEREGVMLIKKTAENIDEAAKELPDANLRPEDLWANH

T2 sequence (O49003 entry or part of it N425Q/I427V): as the sequence (O49003 entry or part of it) above, with N22Q, I24V counted along it
T3 sequence (O49003 entry or part of it N425S/I427L/I466M): as the sequence (O49003 entry or part of it) above, with N22S, I24L, I63M counted along it
T1 sequence (O49003 entry or part of it V416C/T418P/N425P/I466V/F494K): as the sequence (O49003 entry or part of it) above, with V13C, T15P, N22P, I63V, F91K counted along it
T4 sequence (O49003 entry or part of it V416T/T418S): as the sequence (O49003 entry or part of it) above, with V13T, T15S counted along it

Compound: Cc1cc2nc3c(=O)[nH]c(=O)nc-3n(C[C@H](O)[C@H](O)[C@H](O)COP(=O)(O)O)c2cc1C [FMN]
- flavin fluorescence recovery imaging in E. coli colonies after blue light [1]: AsLOV2-V416L and AsLOV2-V416C/T418P/N425P/I466V/F494K exhibited particularly slower thermal reversion kinetics than others
- flavin fluorescence recovery imaging in E. coli colonies after blue light [2]: substitution of V416T, N425Q/I427V, N425S/I427L/I466M and V416T/T418S exhibited particularly faster thermal reversion kinetics
- flavin fluorescence recovery imaging in E. coli colonies after blue light [3]: substitution of V416T, N425Q/I427V, N425S/I427L/I466M and V416T/T418S exhibited particularly faster thermal reversion kinetics
- flavin fluorescence recovery imaging in E. coli colonies after blue light [4]: V416T/T418S exhibited particularly faster thermal reversion kinetics than others
- absorption and fluorescence spectra of co-purified flavin; photoadduct formation [5]: AsLOV2 is a photosensory domain that binds with FMN as a cofactor
